Assay results published in publication PMC4805166, “Synthetic Cyclolipopeptides Selective against Microbial, Plant and Animal Cell Targets by Incorporation of D-Amino Acids or Histidine” (PLoS ONE, 2016).
Where a SMILES comes first, the peptide text is derived from it. Side-chain parts run from the residue outwards. [ ]: non-standard residue; d: D form. The star is where a group is joined. Pentanoyl(4-Me) = CC(C)CCC(=O)*; Hexanoyl = CCCCCC(=O)*

What was measured:
[1] = test system: Fusarium oxysporum f. sp. lycopersici FOL 3 race 2; experiment: MIC, antifungal growth inhibition; type: cell-based; details: PDB with 0.003% chloramphenicol, 20°C, seven days, OD 600 nm; tested at 3.1, 6.2, 12.5, 25, 50 μM; three replicates, repeated twice
Outline: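 Microconidia are grown on PDA at 25 °C and adjusted to 10^4 conidia/mL. Peptide stocks of 500, 250, 125, 62.5 and 31.1 µM (stock, not final) are mixed with conidia in double-concentrated PDB with 0.003% chloramphenicol, in triplicate, and incubated at 20 °C. OD600 is read every 2 h for seven days, and MIC is the lowest concentration with no growth at the end.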

[2] = test system: E. amylovora, P. syringae pv. syringae, X. axonopodis pv. vesicatoria and F. oxysporum; type: cell-based; details: for MIC against three pathogens: three of the four pathogens tested; for MIC values over the pathogens tested: span of MIC values over the four pathogens; for Antimicrobial activity, in words: authors' overall judgement over the pathogens tested
Method: The following plant pathogenic bacterial strains were used: Erwinia amylovora PMV6076 (Institut National de la Recherche Agronomique, Angers, France), Pseudomonas syringae pv. syringae EPS94 (Institut de Tecnologia Agroalimentària, Universitat de Girona, Spain) and Xanthomonas axonopodis pv. vesicatoria 2133–2 (Instituto Valenciano de Investigaciones Agrarias, Valencia, Spain). All bacteria were stored in Luria Bertani (LB) broth supplemented with glycerol (20%) and maintained at -80°C. Bacteria were scrapped from LB agar after growing for 24–48 h at 25°C. The cell material was suspended in sterile water to obtain a suspension of 10^8 CFU mL^-1.
Fusarium oxysporum f. sp. lycopersici FOL 3 race 2 (ATCC 201829, American Type Culture Collection) was used as fungal pathogen. The strain was cultured on potato dextrose agar (PDA) plates (Difco) and microconidia were obtained after growth at 25°C. The concentration of conidia was determined using a hemacytometer and adjusted to 10^4 conidia mL^-1.
Lyophilized peptides were solubilized in sterile Milli-Q water to a final concentration of 1 mM and filter sterilized through a 0.22-μm pore filter. For minimum inhibitory concentration (MIC) assessment, dilutions of the compounds were made to obtain a stock concentration of […]. For antibacterial activity twenty microlitres of each dilution were mixed in a microtiter plate well with 20 μL of the corresponding suspension of the bacterial indicator, 160 μL of Trypticase Soy Broth (TSB) (BioMèrieux, France) to a total volume of 200 μL. For antifungal activity 20 μL of each stock solution were mixed in a microtiter plate well with 80 μL of the corresponding suspension of the fungal pathogen and 100 μL of double concentrated PDB to a total volume of 200 μL containing 0.003% w/v of choramphenicol.
Three replicates for each strain, compound and concentration were used. Microbial growth was determined by optical density measurement at 600 nm (Bioscreen C, Labsystem, Helsinki, Finland). For antibacterial activity microplates were incubated at 25°C with 20 sec shaking before hourly absorbance measurement for 48 h. For antifungal activity microplates were incubated at 20°C with 1 min shaking before absorbance measurement that were done every two hours during seven days. The experiment was repeated twice. The MIC was taken as the lowest compound concentration with no growth at the end of the experiment.

[3] = test system: erythrocyte suspensions of horse blood; details: horse erythrocytes 5% vol/vol, TRIS buffer pH 7.2, 1 h at 37°C, absorbance 540 nm, relative to melittin 100 μM, ± confidence interval (α = 0.05); for Hemolysis (%) 150 µM: 150 µM peptide; for Hemolysis (%) 250 µM: 250 µM peptide;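 on all read-outs here: Read-out is hemoglobin release into the supernatant, with a buffer-only blank subtracted as the 0% baseline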
Method: Blood was centrifuged at 6000g for 5 min, washed three times with TRIS buffer (10 mM TRIS, 150 mM NaCl, pH 7.2) and diluted.
Compounds were solubilized in TRIS buffer and mixed with horse erythrocytes and the final concentrations tested were 250 and 150 μM. The mixture was incubated under continuous shaking for 1 h at 37°C. Then, the tubes were centrifuged at 3500g for 10 min, 80 μL aliquots of the supernatant transferred to 100-well microplates (Bioscreen), diluted with 80 μL water, and the absorbance measured at 540 nm (Bioscreen). Complete hemolysis was obtained by the addition of melittin at 100 μM (Sigma-Aldrich Corporation, Madrid, Spain). The percentage of hemolysis (H) was calculated using the equation: H = 100×[(Op−Ob)/(Om−Ob)], where Op was the density for a given compound concentration, Ob for the buffer, and Om for the melittin positive control.

[4] = test system: Xanthomonas axonopodis pv. vesicatoria 2133–2; type: cell-based; details: TSB, 25°C, 48 h, OD 600 nm; tested at 3.1, 6.2, 12.5, 25, 50 μM; three replicates, experiment repeated twice; MIC = lowest concentration with no growth
Outline: (§1)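 Peptide dilutions (stocks 500–31.1 μM) mixed 1:10 with 10^8 CFU/mL bacterial suspension in TSB. Incubated 25 °C, OD600 read hourly for 48 h, triplicates, repeated twice. MIC: lowest concentration with no growth at end.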

[5] = test system: Pseudomonas syringae pv. syringae EPS94; type: cell-based; details: 48 h
Outline: as §1

[6] = test system: Erwinia amylovora PMV6076; experiment: MIC, in vitro growth inhibition; type: cell-based; details: TSB, 25°C, 48 h, OD 600 nm; tested at 3.1, 6.2, 12.5, 25, 50 μM; three replicates, experiment repeated twice; MIC = lowest concentration with no growth
Outline: as §1

SMILES | MIC Fo [1] [µM] | MIC against three pathogens [2] [µM] | Hemolysis (%) 150 µM [3] [%] | MIC Xav [4] [µM] | MIC Pss [5] [µM] | MIC Ea [6] [µM] | MIC values over the pathogens tested [2] [µM] | Antimicrobial activity, in words [2] | Hemolysis (%) 250 µM [3] [%]
CC(C)CCC(=O)NCCCC[C@@H]1NC(=O)[C@H](CCCCN)NC(=O)[C@H](CC(C)C)NC(=O)[C@H](CCCCN)NC(=O)[C@H](CCCCN)NC(=O)[C@H](CCC(N)=O)NC(=O)[C@H](CC(C)C)NC(=O)[C@H](CCCCN)NC(=O)[C@H](CCCCN)NC(=O)[C@H](Cc2ccccc2)NC1=O [BPC504, c(KKLKK(CO-isoC5H11)FKKLQ)] (cyclo(FKKLQKKLKK(Pentanoyl(4-Me)))) | 3.1 to 6.2 | < 12.5 | 89 ± 2 | 3.1 to 6.2 | 6.2 to 12.5 | 12.5 to 25 |  |  | 
CCCCCC(=O)NCCCC[C@@H]1NC(=O)[C@H](CCCCN)NC(=O)[C@H](CC(C)C)NC(=O)[C@H](CCCCN)NC(=O)[C@H](CCCCN)NC(=O)[C@H](CCC(N)=O)NC(=O)[C@H](CC(C)C)NC(=O)[C@H](CCCCN)NC(=O)[C@H](CCCCN)NC(=O)[C@H](Cc2ccccc2)NC1=O [BPC528, c(KKLKK(CO-nC5H11)FKKLQ)] (cyclo(FKKLQKKLKK(Hexanoyl))) | 6.2 to 12.5 | < 12.5 | 98 ± 7 | 3.1 to 6.2 | 6.2 to 12.5 | 12.5 to 25 | 3.1 to 25 |  | 
CCCCCC(=O)NCCCC[C@@H]1NC(=O)[C@H](CCCCN)NC(=O)[C@H](CCC(N)=O)NC(=O)[C@H](CC(C)C)NC(=O)[C@H](CCCCN)NC(=O)[C@H](CCCCN)NC(=O)[C@H](Cc2ccccc2)NC(=O)[C@H](CCCCN)NC(=O)[C@H](CCCCN)NC(=O)[C@H](CC(C)C)NC1=O [BPC588] (cyclo(FKKLQKK(Hexanoyl)LKK)) | 6.2 to 12.5 |  | 95 ± 4 | 3.1 to 6.2 | 6.2 to 12.5 | 12.5 to 25 | 3.1 to 25 |  | 
CCCCCC(=O)NCCCC[C@@H]1NC(=O)[C@H](CCC(N)=O)NC(=O)[C@H](CC(C)C)NC(=O)[C@H](CCCCN)NC(=O)[C@H](CCCCN)NC(=O)[C@H](Cc2ccccc2)NC(=O)[C@H](CCCCN)NC(=O)[C@H](CCCCN)NC(=O)[C@H](CC(C)C)NC(=O)[C@H](CCCCN)NC1=O [BPC590] (cyclo(FKKLQK(Hexanoyl)KLKK)) | 12.5 to 25 |  | 100 ± 9 | 3.1 to 6.2 | 6.2 to 12.5 | 6.2 to 12.5 | 3.1 to 25 |  | 
CCCCCC(=O)N[C@@H](CCCCN)C(=O)N[C@@H](CC(C)C)C(=O)NCCCC[C@@H]1NC(=O)[C@H](CCCCN)NC(=O)[C@H](CC(C)C)NC(=O)[C@H](CCCCN)NC(=O)[C@H](CCCCN)NC(=O)[C@H](CCC(N)=O)NC(=O)[C@H](CC(C)C)NC(=O)[C@H](CCCCN)NC(=O)[C@H](CCCCN)NC(=O)[C@H](Cc2ccccc2)NC1=O [BPC596, c(KKLKK(LK-CO-nC5H11)FKKLQ)] (cyclo(FKKLQKKLKK([Leu-Lys-Hexanoyl]))) | 12.5 to 25 |  | 93 ± 5 | <3.1 | 6.2 to 12.5 | 12.5 to 25 |  | important antimicrobial activity | 100 ± 11
CCCCCC(=O)NCCCC[C@H]1NC(=O)[C@H](CCCCN)NC(=O)[C@H](CC(C)C)NC(=O)[C@H](CCCCN)NC(=O)[C@H](CCCCN)NC(=O)[C@H](CCC(N)=O)NC(=O)[C@H](CC(C)C)NC(=O)[C@H](CCCCN)NC(=O)[C@H](CCCCN)NC(=O)[C@@H](Cc2ccccc2)NC1=O [BPC632, c(KKLKk(CO-nC5H11)fKKLQ)] (cyclo(KKLK[dK](Hexanoyl)[dF]KKLQ)) | 12.5 to 25 |  | 21 ± 13 | 25 to 50 | 12.5 to 25 | 25 to 50 |  | low active | 22 ± 10
